According to patent US20180311194A1, “APPLICATION OF TRANILAST IN PREPARATION OF DRUG TREATING SCLEREDEMA DIABETICORUM” (THE FIRST AFFILIATED HOSPITAL OF NANJING MEDICAL UNIVERSITY, priority 2016, published 2018):

Legend:
fibroblast = experiment: Secretion and synthesis of mucin by fibroblast; format: cell-based; conditions: initially found
[1] = tested on: patients with scleredema diabeticorum; experiment: Clinical oral treatment of patients with scleredema diabeticorum, skin thickness by B-ultrasound; format: in vivo, human; conditions: for skin thickness measured by B-ultrasound: back skin
From the text: FIG. 1 is a B-ultrasonography of a patient before medication (a and b are different parts of the affected skin).
1. Mode of administration: oral, tranilast 0.1 g, 3 times a day, every 3 months for a course of treatment, a total of two courses.

[2] = tested on: IgE antibody-induced cutaneous anaphylaxis; conditions: rats; cited from earlier work
experimental asthma = conditions: rats; cited from earlier work
type I collagen mRNA = conditions: human dermal fibroblasts; cited from earlier work
[3] = 3 patients, tranilast capsule 0.1, 3 times a day orally, after 3 months
[4] = patients with scleredema diabeticorum, after 3 months of application

blood routine examination, routine urine examination, and biochemical detection ([1]; tranilast capsule 0.1, 3 times a day orally, 3 months): no obvious abnormalities
SMILES: COc1ccc(/C=C/C(=O)Nc2ccccc2C(=O)O)cc1OC [tranilast]
secretion and synthesis of mucin by fibroblast (fibroblast): inhibiting | local skin erythema [1, 3]: subsided significantly | uncomfortable symptom of conscious hardening [1, 3]: significantly relieved | therapeutic effect on scleredema diabeticorum ([1]; clinical results): good therapeutic effect | skin thickness measured by B-ultrasound ([1]; patient Example 1, person, after 3 months of oral administration, before 6.5 mm): 6 mm | skin thickness measured by B-ultrasound ([1]; patient Example 2, person, 0.1 three times a day, after 3 months, before 8 mm): 6 mm | skin thickness measured by B-ultrasound ([1]; patient Example 3, person, 0.1 three times a day, after 3 months, before 8.5 mm): 5.9 mm | thickness of the surrounding skin (B-ultrasonography) ([1]; patient, after 3 months of medication, before medication 3.6 mm): 3.0 mm | thickness of the thickest part of skin on the right side (back of the neck, B-ultrasonography) ([1]; patient, after 3 months of medication, before medication about 7.5 mm): about 6.3 mm | thickness of the thickest part of the skin on the left side (back of the neck, B-ultrasonography) ([1]; patient, after 3 months of medication, before medication about 8.7 mm): about 6.8 mm | reduction of maximum skin thickness (B-ultrasound) ([1]; patient, after 3 months of treatment, before treatment 7.8 to 8.7 mm): 2 mm | adverse reactions [1, 4]: no significant adverse reactions were observed | symptoms in clinical practice [1, 4]: significantly relieved | thickness of the skin detected by B-ultrasound [1, 4]: significantly thinner | skin change in further treated cases ([1]; several further cases): skin thinning | effect on IgE antibody-induced cutaneous anaphylaxis [2]: significant inhibitory effect | effect on experimental asthma (experimental asthma): significant inhibitory effect | TGF-β-induced upregulation of type I collagen mRNA expression and basal level of type I collagen mRNA (type I collagen mRNA): able to suppress
